The test system of data set [1] is HCT-116 colonic cancer cells. Nature of the data set: Cell viability, ALAMAR blue assay, monotherapy. In kind it is cell-based. How it is done:
(§1) In brief, HCT-116, MiaPaCa-2 and Panc-1 cells were thawed in high glucose DMEM (Sigma D5796) with 10% heat-inactivated Foetal Calf Serum (FCS) (PAA, A15-101)). Hep-G2 and SK-Hep1 cells were thawed in Minimum Essential Media (MEM) (Sigma M2279) with 1% non-essential amino acids (Sigma M7145), 2 mM Glutamine (Sigma G7513) and 10% FCS. SK-OV-3 cells were thawed in McCoy's 5A medium (Sigma, M8403) with 15% FCS. All cells were passaged by washing once in cation-free dPBS (Sigma, D1408), and incubated for 3 minutes with trypsin ([0.5 μg/ml]/EDTA [0.2 μg/ml] (Sigma, T4174) in dPBS). Passage was completed at 37° C., and cells were transferred to the appropriate media. Prior to seeding at defined cell density, cells were recovered in medium, centrifuged and resuspended for counting.
(§2) To prepare cells for viability assays, cells were transferred into 96 well tissue culture plates (Cultek), and resuspended in 100 µL at the following densities: 10,000 cells/well (Hep-G2 and MiaPaCa-2), 5000 cells/well (Panc-1 and SK-OV-3) or 3000 cells/well (HCT-116). Following 24 hours of incubation, media was removed and replaced with 100 µL media spiked with QTX125 and the test chemotherapeutic agents. Stock solutions for the agents used in this study are shown below in Table 1. Cells were incubated for a further 72 hours before cell viability was assessed using both ALAMAR® and hexosaminidase assays.
(§3) For the ALAMAR® blue assay, media containing QTX125 and the test chemotherapeutic agents was removed, and cells were stained using ALAMAR® blue (BioSource DAL 1100) for 4 hours at 37° C., following the manufacturer's instructions. Relative fluorescent intensity was measured using a Cytofluor® plate reader (Millipore) at 535/590 nm (Excitation/emission). This measure directly correlates with the number of viable cells present in each well.
(§4) A number of appropriate control samples were included. First, absorbance values measured in reagent ‘blank’ wells (containing cell culture medium and colorimetric agent only) were subtracted from ‘test’ sample-containing wells. ‘Blank’ absorbance values were routinely between 5 and 10% of the values recorded in test wells. Absorbance values recorded in test wells were then compared against wells containing (i) cells stimulated with QTX125 only; (ii) cells stimulated with sorafenib, gemcitabine or bortezomib only and/or (iii) unstimulated cells, as appropriate.
(§5) Control values were normalised to 100% and percentage (%) viability was calculated. Data were used to plot log dose-response curves using a sigmoid dose-response (variable slope) equation. EC50 values were obtained using Equation 1, where ‘X’ is the logarithmic concentration; ‘Y’ is the response output and it is assumed that Y starts at bottom of the graph and reaches the top with an overall sigmoid shape.
(§6) Prior to assessing the oncolytic efficacy of QTX125-containing combination therapies, the oncolytic effect of each test agent was assessed in isolation. Dose-response curves were produced by serial dilution (1:1), thereby allowing monotherapy EC50 values to be calculated.
(§7) Chemotherapeutic agents were added to wells at a starting concentration of 100 μM. However, it was quickly determined that it was not possible to use this range for all chemotherapeutic agents tested. An optimization study was therefore completed to identify suitable maximum (‘high’) doses for each agent and in each individual cell line.

For data set [2], the system named is Hep-G2 hepatic cancer cells. Description: Cell viability, ALAMAR blue assay, monotherapy. In kind it is cell-based. How it is done:
as §1, §2, §3, §4, §5, §6, §7
For orientation: Alamar Blue is a resazurin reagent that responds to reducing activity.

Data set [3] has as its system MiaPaCa-2 pancreatic cancer cells. Nature of the data set: Cell viability, ALAMAR blue assay, monotherapy. In kind it is cell-based. How it is done:
as §1, §2, §3, §4, §5, §6, §7

For data set [4], the system named is Panc-1 pancreatic cancer cells. Nature of the data set: Cell viability, ALAMAR blue assay, monotherapy. Type of data set: cell-based. How it is done: as §1, §2, §3, §4, §5, §6, §7
For data set [5], the system named is SK-OV-3 ovarian cancer cells. Nature of the data set: Cell viability, ALAMAR blue assay, monotherapy. In kind it is cell-based. How it is done: as §1, §2, §3, §4, §5, §6, §7
The test system of data set [6] is HCT-116 colonic cancer cells. Description: Cell viability, hexosaminidase assay, monotherapy. Type of data set: cell-based. How it is done:
as §1, §2
(§8) For the hexosaminidase assay, media containing QTX125 and the test chemotherapeutic agents was removed, and cells were washed once with PBS. 60 μL of substrate solution (containing: 7.5 mM p-nitrophenol-N-acetyl-beta-D-glucosamide [Sigma N-9376], 0.1 M sodium citrate, pH 5.0 and 0.25% Triton X-100) was added to each well and cells were incubated at 37° C. for at least 1 hour. Incubating cells in this manner causes the substrate solution to become bright yellow, at which point 90 μL of developer solution (containing 50 mM Glycine pH 10.4 and 5 mM EDTA) was added to each well. Absorbance at 410 nm was recorded using a plate reader.
as §4, §5, §6, §7

Data set [7] deals with Hep-G2 hepatic cancer cells. Description: Cell viability, hexosaminidase assay, monotherapy. Type of data set: cell-based. As for the experimental part:
as §1, §2, §8, §4, §5, §6, §7

Data set [8] deals with MiaPaCa-2 pancreatic cancer cells. Nature of the data set: Cell viability, hexosaminidase assay, monotherapy. Type of data set: cell-based. How it is done: as §1, §2, §8, §4, §5, §6, §7
In data set [9] the test system is Panc-1 pancreatic cancer cells. Nature of the data set: Cell viability, hexosaminidase assay, monotherapy. Type of data set: cell-based. As for the experimental part:
as §1, §2, §8, §4, §5, §6, §7

Data set [10] deals with SK-OV-3 ovarian cancer cells. Description: Cell viability, hexosaminidase assay, monotherapy. Type of data set: cell-based. As for the experimental part: as §1, §2, §8, §4, §5, §6, §7
Data set [11] can be described thus: Pharmacokinetic properties. Type of data set: in vivo. The following applies: compared with other histone deacetylase inhibitors.
Data set [12] has as its system mantle cell lymphoma, lung cancer and pancreatic cancer xenografts. The following applies: lung cancer and pancreatic cancer xenograft murine models; cited from earlier work.
The test system of data set [13] is multiple sclerosis mice models. The following applies: two different multiple sclerosis mice models; cited from earlier work.
[14] abbreviates: 72 hours of high-dose monotherapy (Table 2: QTX125 1, sorafenib 100, gemcitabine 10, bortezomib 1 μM).
The mark [15] stands for this setting: Homo sapiens, 72 h, read-out: EC50 dose of monotherapy.
[16] abbreviates: 72 hours of high-dose monotherapy (Table 2: QTX125 5, sorafenib 100, gemcitabine 100, bortezomib 1 μM).
[17] abbreviates: Homo sapiens, HepG2, 72 h, read-out: EC50 dose of monotherapy.
The mark [18] stands for this setting: 72 hours of high-dose monotherapy (Table 2: QTX125 100, sorafenib 100, gemcitabine 100, bortezomib 1 μM).
The mark [19] stands for this setting: 72 hours of high-dose monotherapy (Table 2: QTX125 10, sorafenib 100, gemcitabine 10, bortezomib 1 μM).

The values that follow come from patent publication US20250281453A1, “COMBINATION THERAPIES COMPRISING QTX125” (QUIMATRYX, S.L., priority 2022, published 2025).

Each structure is given as a SMILES string.

The EC50 is the concentration needed to bring the measured effect to its halfway point. Turning to `O=C(NO)c1ccc(CNC(=O)c2[nH]c(-c3ccc(O)cc3)cc2-c2ccoc2)cc1` [QTX125, 3-(3-Furyl)-N-{4-[(hydroxyamino)carbonyl]benzyl}-5-(4-hydroxyphenyl)-1 Hpyrrole-2-carboxamide], the “percentage (%) cell viabilities” value in [1] (setting [14]) turned out to be 0.0%; in data set [2] (setting [16]) it was 0.0%; in [3] (setting [18]), 0.0%; in data set [4] (setting [18]), 0.0%; in [5] (setting [19]), 0.0%; in data set [6] (setting [14]) it was 7.3%. In addition, the “percentage (%) cell viabilities” value in [7] (setting [16]) is reported as 2.1%; in data set [8] (setting [18]) it was 7.3%; in data set [9] (setting [18]), 3.9%; in data set [10] (setting [19]), 5.0%. For the same compound, the EC50 was determined as 330 nM in [1] (setting [15]); 910 ± 200 nM in data set [2] (setting [17]); 1790 ± 50 nM in data set [3] (Homo sapiens, MIA PaCa-2, 72 h, 72 h, read-out: EC50 dose of monotherapy); 1400 ± 150 nM in [4] (setting [15]); 3000 ± 400 nM in [5] (setting [15]); 430 nM in [6] (setting [15]). Moreover, the EC50 worked out at 3300 ± 400 nM in data set [7] (setting [17]); 1500 ± 200 nM in data set [8] (Homo sapiens, MIA PaCa-2, 72 h, read-out: EC50 dose of monotherapy); 3600 ± 500 nM in [9] (setting [15]); 3600 ± 400 nM in data set [10] (setting [15]). Also, the “reduction of the population of viable cells” value in data set [7] (high-dose monotherapy, 72 hours) is listed as roughly 98%. In addition, the “pharmacokinetic properties (half-lives and distribution volumes)” value in data set [11] was “higher half-lives and distribution volumes”. Further, the antitumoral efficacy result in data set [12] is on record as “high antitumoral efficacy”. Moreover, the “efficacy in multiple sclerosis mice models” value in data set [13] is listed as “high efficacy”.
